Legend:
Assay in all cases: Carna kinome panel
Format in all cases: biochemical
CDK2/CycA2 = CDK2/CycA2 (Homo sapiens (Human), UniProt P24941)
Text: (§1) 2) Off-Chip Mobility Shift Assay (MSA).

CDK9/CycT1 = CDK9/CycT1 (Homo sapiens (Human), UniProt P50750)
Text: as §1

PIK3CA/PIK3R1 = PIK3CA/PIK3R1 (Homo sapiens (Human), UniProt P42336)
Text: as §1

MAP3K4_Cascade = MAP3K4_Cascade (Homo sapiens (Human), UniProt Q9Y6R4); settings: read-out: % Inhibition at 10 μM of the test compound
CK1δ = CK1δ (Homo sapiens (Human), UniProt P48730); settings: read-out: % Inhibition at 10 μM of the test compound
MLK3_Cascade = MLK3_Cascade (Homo sapiens (Human), UniProt Q16584); settings: read-out: % Inhibition at 10 μM of the test compound
IRR = IRR (Homo sapiens (Human), UniProt P14616); settings: read-out: % Inhibition at 10 μM of the test compound
PHKG1 = PHKG1 (Homo sapiens (Human), UniProt Q16816); settings: read-out: % Inhibition at 10 μM of the test compound
TRKA = TRKA (Homo sapiens (Human), UniProt P04629); settings: read-out: % Inhibition at 10 μM of the test compound
CK1α = CK1α (Homo sapiens (Human), UniProt P48729); settings: read-out: % Inhibition at 10 μM of the test compound
MAP2K5_Cascade = MAP2K5_Cascade (Homo sapiens (Human), UniProt Q13163); settings: read-out: % Inhibition at 10 μM of the test compound
TSSK2 = TSSK2 (Homo sapiens (Human), UniProt Q96PF2); settings: read-out: % Inhibition at 10 μM of the test compound
RET(G691S) = RET(G691S) (Homo sapiens (Human), UniProt P07949, G691S); settings: read-out: % Inhibition at 10 μM of the test compound
PIM3 = PIM3 (Homo sapiens (Human), UniProt Q86V86); settings: read-out: % Inhibition at 10 μM of the test compound
CLK2 = CLK2 (Homo sapiens (Human), UniProt P49760); settings: read-out: % Inhibition at 10 μM of the test compound
MARK2 = MARK2 (Homo sapiens (Human), UniProt Q7KZI7); settings: read-out: % Inhibition at 10 μM of the test compound
HGK = HGK (Homo sapiens (Human), UniProt O95819); settings: read-out: % Inhibition at 10 μM of the test compound
PAK1 = PAK1 (Homo sapiens (Human), UniProt Q13153); settings: read-out: % Inhibition at 10 μM of the test compound
NDR1 = NDR1 (Homo sapiens (Human), UniProt Q15208); settings: read-out: % Inhibition at 10 μM of the test compound
Chain of NDR1 (Q15208 whole entry): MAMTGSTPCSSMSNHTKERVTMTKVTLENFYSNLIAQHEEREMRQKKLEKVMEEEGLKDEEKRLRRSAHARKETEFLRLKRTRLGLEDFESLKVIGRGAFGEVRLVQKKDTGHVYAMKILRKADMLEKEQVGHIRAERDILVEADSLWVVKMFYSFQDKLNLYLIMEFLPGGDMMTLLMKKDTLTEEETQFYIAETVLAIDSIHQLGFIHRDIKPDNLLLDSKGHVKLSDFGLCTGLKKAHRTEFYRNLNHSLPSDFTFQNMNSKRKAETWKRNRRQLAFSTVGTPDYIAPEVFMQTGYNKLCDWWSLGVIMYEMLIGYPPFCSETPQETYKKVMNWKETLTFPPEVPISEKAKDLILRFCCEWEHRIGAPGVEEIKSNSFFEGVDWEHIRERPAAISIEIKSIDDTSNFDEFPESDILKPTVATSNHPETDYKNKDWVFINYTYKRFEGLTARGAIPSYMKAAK

SRPK1 = SRPK1 (Homo sapiens (Human), UniProt Q96SB4); settings: read-out: % Inhibition at 10 μM of the test compound
RET(Y791F) = RET(Y791F) (Homo sapiens (Human), UniProt P07949, Y791F); settings: read-out: % Inhibition at 10 μM of the test compound
CaMK2α = CaMK2α (Homo sapiens (Human), UniProt Q9UQM7); settings: read-out: % Inhibition at 10 μM of the test compound
BTK = BTK (Homo sapiens (Human), UniProt Q06187); settings: read-out: % Inhibition at 10 μM of the test compound
RSK1 = RSK1 (Homo sapiens (Human), UniProt Q15418); settings: read-out: % Inhibition at 10 μM of the test compound
Chain of RSK1 (Q15418 whole entry, looked up): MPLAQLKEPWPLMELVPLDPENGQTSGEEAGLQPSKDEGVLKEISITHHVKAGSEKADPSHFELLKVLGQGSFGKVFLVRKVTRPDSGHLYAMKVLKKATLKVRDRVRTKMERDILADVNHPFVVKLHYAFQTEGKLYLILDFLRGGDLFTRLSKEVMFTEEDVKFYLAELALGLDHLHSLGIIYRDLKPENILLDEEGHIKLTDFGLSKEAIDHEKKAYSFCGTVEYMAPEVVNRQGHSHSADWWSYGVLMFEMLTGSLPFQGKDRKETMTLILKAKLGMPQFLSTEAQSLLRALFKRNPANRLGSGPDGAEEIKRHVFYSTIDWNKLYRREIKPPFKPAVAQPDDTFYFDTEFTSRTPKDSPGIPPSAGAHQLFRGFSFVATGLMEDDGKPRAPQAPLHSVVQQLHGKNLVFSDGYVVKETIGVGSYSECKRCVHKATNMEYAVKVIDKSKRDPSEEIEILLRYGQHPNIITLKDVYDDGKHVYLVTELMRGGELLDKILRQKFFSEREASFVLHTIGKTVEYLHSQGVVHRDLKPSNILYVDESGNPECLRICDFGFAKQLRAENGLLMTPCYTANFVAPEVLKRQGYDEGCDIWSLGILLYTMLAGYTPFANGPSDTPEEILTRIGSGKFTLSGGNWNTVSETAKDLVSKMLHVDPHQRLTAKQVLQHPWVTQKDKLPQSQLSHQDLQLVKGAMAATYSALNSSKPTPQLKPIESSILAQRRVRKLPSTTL

PKCι = PKCι (Homo sapiens (Human), UniProt P41743); settings: read-out: % Inhibition at 10 μM of the test compound
MNK2 = MNK2 (Homo sapiens (Human), UniProt Q9HBH9); settings: read-out: % Inhibition at 10 μM of the test compound
HCK = HCK (Homo sapiens (Human), UniProt P08631); settings: read-out: % Inhibition at 10 μM of the test compound
CK2α1/β = CK2α1/β (Homo sapiens (Human), UniProt P68400); settings: read-out: % Inhibition at 10 μM of the test compound
Experimental: Briefly, a selection of compounds was screened against a panel of kinases at a single concentration of 10 μM. […] This was completed using one of two assays, depending on the kinase being examined: 1) IMAP Assay. A solution of 4× inhibitor, 4× substrate/ATP/metal solution and 2× kinase solution was prepared with assay buffer (20 mM HEPES, 0.01% Tween-20, 2 mM DTT, pH 7.4) and mixed, then incubated in 384-well black plates for 1 hour at room temperature. The IMAP binding reagent (IMAP Screening Express kit; Molecular Devices) was added to each well and incubated for 30 minutes. […] 2) Off-Chip Mobility Shift Assay (MSA). A solution of 4× inhibitor, 4× substrate/ATP/metal solution and 2× kinase solution was prepared with assay buffer (20 mM HEPES, 0.01% Triton X-100, 2 mM DTT, pH 7.5) and mixed, then incubated in 384-well plates for 1 or 5 hours depending on the kinase, at room temperature. Termination buffer (QuickScout Screening assist MSA; Carna Biosciences) was added to each well. The entire reaction mixture was then applied to a LabChip3000 system (Caliper Life Science), and the product and substrate peptide peaks were separated and quantified. […] The entire reaction mixture was then applied to a LabChip3000 system (Caliper Life Science), and the product and substrate peptide peaks were separated and quantified.

HER4 = HER4 (Homo sapiens (Human), UniProt Q15303); settings: read-out: % Inhibition at 10 μM of the test compound
EGFR(d746-750/T790M) = EGFR(d746-750/T790M) (Homo sapiens (Human), UniProt P00533, DEL746-750/T790M); settings: read-out: % Inhibition at 10 μM of the test compound
FES = FES (Homo sapiens (Human), UniProt P07332); settings: read-out: % Inhibition at 10 μM of the test compound
MST1 = MST1 (Homo sapiens (Human), UniProt Q13043); settings: read-out: % Inhibition at 10 μM of the test compound
DCAMKL2 = DCAMKL2 (Homo sapiens (Human), UniProt Q8N568); settings: read-out: % Inhibition at 10 μM of the test compound
Chain of DCAMKL2 (Q8N568 whole entry): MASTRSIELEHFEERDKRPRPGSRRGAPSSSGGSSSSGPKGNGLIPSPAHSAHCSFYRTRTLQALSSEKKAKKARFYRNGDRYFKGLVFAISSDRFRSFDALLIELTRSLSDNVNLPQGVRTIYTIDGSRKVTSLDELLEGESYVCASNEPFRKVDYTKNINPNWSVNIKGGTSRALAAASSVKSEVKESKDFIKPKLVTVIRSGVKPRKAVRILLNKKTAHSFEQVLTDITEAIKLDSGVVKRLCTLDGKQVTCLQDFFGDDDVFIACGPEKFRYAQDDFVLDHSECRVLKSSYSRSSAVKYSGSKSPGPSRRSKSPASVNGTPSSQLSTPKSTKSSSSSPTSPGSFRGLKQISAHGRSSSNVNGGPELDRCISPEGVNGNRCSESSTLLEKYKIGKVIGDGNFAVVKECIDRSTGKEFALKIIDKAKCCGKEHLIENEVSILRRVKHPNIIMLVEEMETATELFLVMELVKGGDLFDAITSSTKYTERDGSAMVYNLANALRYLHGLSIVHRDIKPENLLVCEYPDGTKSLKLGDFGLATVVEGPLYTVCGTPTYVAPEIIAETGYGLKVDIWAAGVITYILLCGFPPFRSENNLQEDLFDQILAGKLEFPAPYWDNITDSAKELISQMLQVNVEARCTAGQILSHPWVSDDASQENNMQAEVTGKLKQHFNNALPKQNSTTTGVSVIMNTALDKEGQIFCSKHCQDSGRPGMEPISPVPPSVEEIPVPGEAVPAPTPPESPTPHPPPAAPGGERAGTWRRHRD

CaMK2δ = CaMK2δ (Homo sapiens (Human), UniProt Q13557); settings: read-out: % Inhibition at 10 μM of the test compound
CDC7/ASK = CDC7/ASK (Homo sapiens (Human), UniProt O00311); settings: read-out: % Inhibition at 10 μM of the test compound
MET(Y1235D) = MET(Y1235D) (Homo sapiens (Human), UniProt P08581, Y1235D); settings: read-out: % Inhibition at 10 μM of the test compound
MAPKAPK2 = MAPKAPK2 (Homo sapiens (Human), UniProt P49137); settings: read-out: % Inhibition at 10 μM of the test compound
PKD2 = PKD2 (Homo sapiens (Human), UniProt Q9BZL6); settings: read-out: % Inhibition at 10 μM of the test compound
EGFR(T790M) = EGFR(T790M) (Homo sapiens (Human), UniProt P00533, T790M); settings: read-out: % Inhibition at 10 μM of the test compound
[1] = read-out: % Inhibition at 10 μM of the test compound

Chain of PIK3CA/PIK3R1 (P42336 whole entry, looked up): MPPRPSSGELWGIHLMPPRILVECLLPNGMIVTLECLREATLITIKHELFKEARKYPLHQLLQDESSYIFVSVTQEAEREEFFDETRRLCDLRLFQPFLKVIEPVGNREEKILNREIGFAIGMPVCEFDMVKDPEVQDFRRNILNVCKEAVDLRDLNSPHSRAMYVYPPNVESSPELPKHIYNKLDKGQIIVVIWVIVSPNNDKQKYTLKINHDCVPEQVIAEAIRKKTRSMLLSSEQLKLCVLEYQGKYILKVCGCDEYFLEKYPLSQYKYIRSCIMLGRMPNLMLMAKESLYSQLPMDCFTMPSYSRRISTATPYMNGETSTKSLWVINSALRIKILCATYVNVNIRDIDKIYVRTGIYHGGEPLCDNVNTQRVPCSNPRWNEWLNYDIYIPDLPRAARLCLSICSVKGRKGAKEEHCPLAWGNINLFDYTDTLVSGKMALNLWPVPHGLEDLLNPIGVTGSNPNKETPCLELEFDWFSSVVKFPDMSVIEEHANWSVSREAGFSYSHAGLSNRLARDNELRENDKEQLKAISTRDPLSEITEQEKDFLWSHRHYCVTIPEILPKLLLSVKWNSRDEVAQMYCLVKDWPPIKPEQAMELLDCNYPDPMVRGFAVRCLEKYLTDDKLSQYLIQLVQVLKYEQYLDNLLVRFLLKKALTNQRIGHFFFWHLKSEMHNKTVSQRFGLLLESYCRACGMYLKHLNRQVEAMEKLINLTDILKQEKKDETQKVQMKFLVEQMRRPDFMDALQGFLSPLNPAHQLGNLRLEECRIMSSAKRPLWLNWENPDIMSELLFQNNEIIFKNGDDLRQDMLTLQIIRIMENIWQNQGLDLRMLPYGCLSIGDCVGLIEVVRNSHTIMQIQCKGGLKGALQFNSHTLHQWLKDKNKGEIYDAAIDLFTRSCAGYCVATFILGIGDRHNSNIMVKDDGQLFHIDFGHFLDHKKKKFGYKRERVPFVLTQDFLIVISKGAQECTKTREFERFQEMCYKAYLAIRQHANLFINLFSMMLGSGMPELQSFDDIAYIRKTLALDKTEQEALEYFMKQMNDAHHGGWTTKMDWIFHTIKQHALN
Chain of PIK3CA/PIK3R1 (P27986 whole entry partner, looked up): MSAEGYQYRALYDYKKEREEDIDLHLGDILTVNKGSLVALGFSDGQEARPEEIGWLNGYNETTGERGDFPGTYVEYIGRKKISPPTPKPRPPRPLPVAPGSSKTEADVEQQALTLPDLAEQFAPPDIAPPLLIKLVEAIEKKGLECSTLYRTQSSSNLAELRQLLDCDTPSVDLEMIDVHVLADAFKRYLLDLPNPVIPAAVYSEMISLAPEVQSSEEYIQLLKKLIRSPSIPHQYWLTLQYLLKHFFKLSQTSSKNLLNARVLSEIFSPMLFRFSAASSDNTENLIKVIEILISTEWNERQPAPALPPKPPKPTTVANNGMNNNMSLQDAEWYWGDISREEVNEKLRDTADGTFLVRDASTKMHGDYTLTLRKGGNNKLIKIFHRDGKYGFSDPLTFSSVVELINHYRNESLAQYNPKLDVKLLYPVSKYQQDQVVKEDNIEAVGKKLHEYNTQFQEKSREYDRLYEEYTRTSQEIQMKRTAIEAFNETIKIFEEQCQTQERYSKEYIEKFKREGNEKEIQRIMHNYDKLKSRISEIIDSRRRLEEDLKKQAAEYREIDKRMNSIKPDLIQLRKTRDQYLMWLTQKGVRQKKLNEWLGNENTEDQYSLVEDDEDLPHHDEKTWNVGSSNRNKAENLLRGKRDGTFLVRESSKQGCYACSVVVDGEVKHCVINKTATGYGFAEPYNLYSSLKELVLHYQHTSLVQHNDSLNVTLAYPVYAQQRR
Chain of CDK9/CycT1 (P50750 whole entry, looked up): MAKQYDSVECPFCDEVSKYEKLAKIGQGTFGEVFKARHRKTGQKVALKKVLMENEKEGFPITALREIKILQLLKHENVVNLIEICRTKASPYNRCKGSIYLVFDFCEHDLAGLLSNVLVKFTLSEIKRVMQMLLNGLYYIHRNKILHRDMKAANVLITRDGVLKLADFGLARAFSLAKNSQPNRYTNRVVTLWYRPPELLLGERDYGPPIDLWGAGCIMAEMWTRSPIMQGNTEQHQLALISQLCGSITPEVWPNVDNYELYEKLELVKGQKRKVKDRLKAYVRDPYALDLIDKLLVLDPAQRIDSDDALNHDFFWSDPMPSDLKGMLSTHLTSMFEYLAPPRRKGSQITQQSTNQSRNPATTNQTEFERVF
Chain of CDK9/CycT1 (O60563 whole entry partner, looked up): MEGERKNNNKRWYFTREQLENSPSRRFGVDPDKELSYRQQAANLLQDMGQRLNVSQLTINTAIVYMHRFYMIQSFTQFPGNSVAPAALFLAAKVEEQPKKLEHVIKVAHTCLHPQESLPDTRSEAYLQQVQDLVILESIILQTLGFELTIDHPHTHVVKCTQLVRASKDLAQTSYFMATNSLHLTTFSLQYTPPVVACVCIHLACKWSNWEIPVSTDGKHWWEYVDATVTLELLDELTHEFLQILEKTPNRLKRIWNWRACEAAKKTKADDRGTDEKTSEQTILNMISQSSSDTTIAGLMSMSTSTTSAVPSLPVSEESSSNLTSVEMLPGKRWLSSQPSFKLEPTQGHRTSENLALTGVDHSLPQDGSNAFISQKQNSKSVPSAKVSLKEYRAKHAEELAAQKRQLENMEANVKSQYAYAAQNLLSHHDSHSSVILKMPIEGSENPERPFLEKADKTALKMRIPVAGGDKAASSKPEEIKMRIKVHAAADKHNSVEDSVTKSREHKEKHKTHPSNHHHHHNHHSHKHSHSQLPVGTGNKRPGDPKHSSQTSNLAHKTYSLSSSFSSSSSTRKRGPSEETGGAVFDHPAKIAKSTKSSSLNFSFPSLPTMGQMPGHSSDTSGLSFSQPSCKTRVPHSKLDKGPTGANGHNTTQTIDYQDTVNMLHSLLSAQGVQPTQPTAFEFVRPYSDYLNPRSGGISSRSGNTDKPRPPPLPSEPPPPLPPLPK

Compound `CCC1(c2ccccc2)C2=C(CC(C)(C)CC2=O)Nc2ncsc21` (stereo not drawn) [Compound 1, 9-Ethyl-6,6-dimethyl-9-phenyl-5,6,7,9-tetrahydrothiazolo[4,5-b]quinolin-8(4H)-one] has an IC50 (CDK2/CycA2) of 6.91 µM, an inhibition at 10 µM (CDK2/CycA2; [1]) of 58.8% and an IC50 (CDK9/CycT1) of 6.48 µM. It also gave an inhibition at 10 µM (CDK9/CycT1; [1]) of 60.5%, an IC50 (PIK3CA/PIK3R1) greater than 10 µM and an inhibition at 10 µM (PIK3CA/PIK3R1; [1]) of 65.1%. The inhibition at 10 µM (MAP3K4_Cascade) was 10.1%, the inhibition at 10 µM (CK1δ) was 8.2% and the inhibition at 10 µM (MLK3_Cascade) was 7.3%. For the same compound, the inhibition at 10 µM (IRR) was 6.6%, the inhibition at 10 µM (PHKG1) was 5.9% and the inhibition at 10 µM (TRKA) was 5.4%. It also gave an inhibition at 10 µM (CK1α) of 4.3%, an inhibition at 10 µM (MAP2K5_Cascade) of 4.3% and an inhibition at 10 µM (TSSK2) of 3.1%. For the same compound, the inhibition at 10 µM (RET(G691S)) was 2.8%, the inhibition at 10 µM (PIM3) was 1.1% and the inhibition at 10 µM (CLK2) was 0.9%. It also gave an inhibition at 10 µM (MARK2) of 0.4%, an inhibition at 10 µM (HGK) of 0.4% and an inhibition at 10 µM (PAK1) of 0.3%. It also gave an inhibition at 10 µM (NDR1) of 0.2%, an inhibition at 10 µM (SRPK1) of -0.3% and an inhibition at 10 µM (RET(Y791F)) of -1.6%. The inhibition at 10 µM (CaMK2α) was -1.6%, the inhibition at 10 µM (BTK) was -1.6% and the inhibition at 10 µM (RSK1) was -2%. The inhibition at 10 µM (PKCι) was -2.7%, the inhibition at 10 µM (MNK2) was -2.8% and the inhibition at 10 µM (HCK) was -3%. For the same compound, the inhibition at 10 µM (CK2α1/β) was -3.7%, the inhibition at 10 µM (HER4) was -4% and the inhibition at 10 µM (EGFR(d746-750/T790M)) was -5.6%. The inhibition at 10 µM (FES) was -6.2%, the inhibition at 10 µM (MST1) was -6.6% and the inhibition at 10 µM (DCAMKL2) was -7.6%. It also gave an inhibition at 10 µM (CaMK2δ) of -8.6%, an inhibition at 10 µM (CDC7/ASK) of -9.1% and an inhibition at 10 µM (MET(Y1235D)) of -12.2%. For the same compound, the inhibition at 10 µM (MAPKAPK2) was -13.4%, the inhibition at 10 µM (PKD2) was -13.8% and the inhibition at 10 µM (EGFR(T790M)) was -13.8%.

Reference: patent US11203601B2, “Tricyclic compounds as glycogen synthase kinase 3 (GSK3) inhibitors and uses thereof” (The Broad Institute, Inc., priority 2017, dated 2021)
